Measurements taken from the supplement of paper PMC11208160.

Test: recombinant UMI read abundance after kanamycin selection (control-corrected) (log10(CPM+1)); higher = more efficient recombination; extreme values may be limits of the assay; sequences stand for … in AGTGCAGAGAAAATCGGCCAGTTTTCTCTGCCTGCAGTCCGCATGCCGTGGGACCCCTTGGGTTCTAACCTGTTGCCTAGATTTATGCAGCGGACTGCCTTTCTCCCAAAGTGATAAACCGG…AGGTTGGTTTCACT; site = the 11-nt donor
Outline: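 Values, expressed as log10(CPM+1), derive from recombinant UMI counts converted to CPM, averaged across replicates and scaled by control-derived factors. Plating was with IPTG (0.07 mM) plus kanamycin or unselected, two replicates each. The screen pooled donor and donor-binding-loop pairs for the IS621 bridge recombinase in Escherichia coli.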
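Also: IS621 bridge recombinase in Escherichia coli cells against a fixed T5 target plasmid.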

| Sequence | recombinant UMI read abundance (log10) |
| --- | --- |
| TGCCCCGCATGGACCGGTTTTCCCGGTAATCCGTATTTGTT (site TGCCCCGCTAA) | 0.0107 |
| TGCCGATCATGGACCGGTTTTCCCGGTAATCCGTATTTGGT (site TGCCGATCTAC) | 0 |
| TGCCGCTCATGGACCGGTTTTCCCGGTAATCCGTATTTGGA (site TGCCGCTCTTC) | 0.324 |
| TGCCGGTCATGGACCGGTTTTCCCGGTAATCCGTATTTGCA (site TGCCGGTCTTG) | 1.45 |
| TGCCGTTCATGGACCGGTTTTCCCGGTAATCCGTATTTGAT (site TGCCGTTCTAT) | 0 |
| TGCCTCGCATGGACCGGTTTTCCCGGTAATCCGTATTTGAT (site TGCCTCGCTAT) | 0.0124 |
| TGCGTCACATGGACCGGTTTTCCCGGTAATCCGTATTTGCC (site TGCGTCACTGG) | 1.97 |
| TGCTAATCATGGACCGGTTTTCCCGGTAATCCGTATTTGCT (site TGCTAATCTAG) | 1.08 |
| TGCTAGGCATGGACCGGTTTTCCCGGTAATCCGTATTTGGG (site TGCTAGGCTAC) | 0.0327 |
| TGCTAGGCATGGACCGGTTTTCCCGGTAATCCGTATTTGGG (site TGCTAGGCTCC) | 0.00935 |
| TGCTAGGCATGGACCGGTTTTCCCGGTAATCCGTATTTGGG (site TGCTAGGCTGC) | 0 |
| TGCTAGGCATGGACCGGTTTTCCCGGTAATCCGTATTTGGG (site TGCTAGGCTTC) | 0.00914 |
| TGCTAGTCATGGACCGGTTTTCCCGGTAATCCGTATTTGAC (site TGCTAGTCTGT) | 0 |
| TGCTCAACATGGACCGGTTTTCCCGGTAATCCGTATTTGGC (site TGCTCAACTGC) | 0 |
| TGCTCATCATGGACCGGTTTTCCCGGTAATCCGTATTTGCT (site CGATCATCTAG) | 0 |
| TGCTCATCATGGACCGGTTTTCCCGGTAATCCGTATTTGCT (site TGCTCATCTAG) | 1.08 |
| TGCTCCACATGGACCGGTTTTCCCGGTAATCCGTATTTGGA (site TGCTCCACTTC) | 0 |
| TGCTCCCCATGGACCGGTTTTCCCGGTAATCCGTATTTGGT (site TGCTCCCCTAC) | 0.0121 |
| TGCTGCGCATGGACCGGTTTTCCCGGTAATCCGTATTTGTG (site TGCTGCGCTCA) | 0.0115 |
| TGCTGGGCATGGACCGGTTTTCCCGGTAATCCGTATTTGGT (site TGCTAGGCTAC) | 0.109 |
| TGCTGGGCATGGACCGGTTTTCCCGGTAATCCGTATTTGGT (site TGCTCGGCTAC) | 0.0121 |
| TGCTGGGCATGGACCGGTTTTCCCGGTAATCCGTATTTGGT (site TGCTGGGCTAC) | 0.306 |
| TGCTGGGCATGGACCGGTTTTCCCGGTAATCCGTATTTGGT (site TGCTTGGCTAC) | 0.0187 |
| TGCTGTCCATGGACCGGTTTTCCCGGTAATCCGTATTTGTT (site TGCTGTCCTAA) | 0.00448 |
| TGGAAGACATGGACCGGTTTTCCCGGTAATCCGTATTTGCG (site AGGAAGACTTG) | 0 |
| TGGAAGACATGGACCGGTTTTCCCGGTAATCCGTATTTGCG (site TGGAAGACTCG) | 2.05 |

| Sequence | recombinant UMI read abundance (log10) |
| --- | --- |
| TGGACAACATGGACCGGTTTTCCCGGTAATCCGTATTTGTG (site TGGACAACTCA) | 0.209 |
| TGGACCTCATGGACCGGTTTTCCCGGTAATCCGTATTTGAG (site TGGACCTCTCT) | 0.96 |
| TGGATCACATGGACCGGTTTTCCCGGTAATCCGTATTTGCT (site TGGATCACTAG) | 1.72 |
| TGGCAACCATGGACCGGTTTTCCCGGTAATCCGTATTTGCT (site TGGCAACCTAG) | 0 |
| TGGCAAGCATGGACCGGTTTTCCCGGTAATCCGTATTTGGC (site TGGCAAGCTGC) | 0.585 |
| TGGCATACATGGACCGGTTTTCCCGGTAATCCGTATTTGTA (site TGGCATACTTA) | 0.751 |
| TGGCCGGCATGGACCGGTTTTCCCGGTAATCCGTATTTGGA (site TGGCCGGCTAC) | 0.0385 |
| TGGCCGGCATGGACCGGTTTTCCCGGTAATCCGTATTTGGA (site TGGCCGGCTCC) | 0.0416 |
| TGGCCGGCATGGACCGGTTTTCCCGGTAATCCGTATTTGGA (site TGGCCGGCTGC) | 0 |
| TGGCCGGCATGGACCGGTTTTCCCGGTAATCCGTATTTGGA (site TGGCCGGCTTC) | 0.0151 |
| TGGCCGGCATGGACCGGTTTTCCCGGTAATCCGTATTTGGG (site TGGCCGGCTAC) | 0.0282 |
| TGGCCGGCATGGACCGGTTTTCCCGGTAATCCGTATTTGGG (site TGGCCGGCTCC) | 0.059 |
| TGGCCGGCATGGACCGGTTTTCCCGGTAATCCGTATTTGGG (site TGGCCGGCTGC) | 0 |
| TGGCCGGCATGGACCGGTTTTCCCGGTAATCCGTATTTGGG (site TGGCCGGCTTC) | 0.00405 |
| TGGCCGGCATGGACCGGTTTTCCCGGTAATCCGTATTTGTC (site TGGCCGGCTGA) | 0.815 |
| TGGCCGGCATGGACCGGTTTTCCCGGTAATCCGTATTTGTC (site TGGCCGGCTGC) | 0 |
| TGGCCGGCATGGACCGGTTTTCCCGGTAATCCGTATTTGTC (site TGGCCGGCTGG) | 0 |
| TGGCCGGCATGGACCGGTTTTCCCGGTAATCCGTATTTGTC (site TGGCCGGCTGT) | 0 |
| TGGCGGGCATGGACCGGTTTTCCCGGTAATCCGTATTTGGC (site TGGCAGGCTGC) | 1.38 |
| TGGCGGGCATGGACCGGTTTTCCCGGTAATCCGTATTTGGC (site TGGCCGGCTGC) | 0.00581 |
| TGGCGGGCATGGACCGGTTTTCCCGGTAATCCGTATTTGGC (site TGGCGGGCTGC) | 1.79 |
| TGGCGGGCATGGACCGGTTTTCCCGGTAATCCGTATTTGGC (site TGGCTGGCTGC) | 1.01 |
| TGGCGGGCATGGACCGGTTTTCCCGGTAATCCGTATTTGTT (site TGGCGGGCTAA) | 0.701 |
| TGGCTCCCATGGACCGGTTTTCCCGGTAATCCGTATTTGGT (site TGGCTCCCTAC) | 0.203 |
| TGGCTGGCATGGACCGGTTTTCCCGGTAATCCGTATTTGGC (site TGGCAGGCTGC) | 0 |
| TGGCTGGCATGGACCGGTTTTCCCGGTAATCCGTATTTGGC (site TGGCCGGCTGC) | 0 |
